In patent US8445503B2, “Inhibitors of polo-like kinase” (Elan Pharmaceuticals, Inc., priority 2009, dated 2013):
Like-named read-outs stand apart in the source and are kept apart here.

Key:
Format in all cases: biochemical
GST-PLK1 = GST-PLK1 (Homo sapiens, UniProt P53350); experiment: PLK TR-FRET peptide assay, PLK1; settings: read-out: Plk1 IC50
GST-PLK2 = target: T1, GST-PLK2 (Homo sapiens, UniProt Q9NYY3); experiment: PLK TR-FRET peptide assay, PLK2; settings: for IC50: PLK TR-FRET peptide assay, GST-PLK2, read-out: Plk2 IC50
T1 construct: purchased CarnaBio
T1 sequence (Q9NYY3 whole entry): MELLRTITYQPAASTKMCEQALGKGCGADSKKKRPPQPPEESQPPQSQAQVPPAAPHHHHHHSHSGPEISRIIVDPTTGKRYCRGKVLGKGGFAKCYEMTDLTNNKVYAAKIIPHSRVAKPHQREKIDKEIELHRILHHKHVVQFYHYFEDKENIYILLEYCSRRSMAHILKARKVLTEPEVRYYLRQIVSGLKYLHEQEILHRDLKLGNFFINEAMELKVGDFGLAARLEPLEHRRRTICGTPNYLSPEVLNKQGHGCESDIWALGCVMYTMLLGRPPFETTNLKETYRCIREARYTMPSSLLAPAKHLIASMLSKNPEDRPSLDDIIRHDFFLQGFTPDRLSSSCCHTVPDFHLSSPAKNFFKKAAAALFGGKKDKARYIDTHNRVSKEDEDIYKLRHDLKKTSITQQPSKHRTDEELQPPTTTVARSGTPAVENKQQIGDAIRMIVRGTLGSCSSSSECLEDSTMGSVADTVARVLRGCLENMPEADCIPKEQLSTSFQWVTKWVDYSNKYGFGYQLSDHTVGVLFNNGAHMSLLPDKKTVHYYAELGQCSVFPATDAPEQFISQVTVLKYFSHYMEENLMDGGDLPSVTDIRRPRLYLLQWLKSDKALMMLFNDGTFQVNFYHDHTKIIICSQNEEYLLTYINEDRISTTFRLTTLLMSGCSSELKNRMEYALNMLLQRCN

GST-PLK3 = target: T2, GST-PLK3 (Homo sapiens, UniProt Q9H4B4); experiment: PLK TR-FRET peptide assay, PLK3; settings: read-out: Plk3 IC50
T2 construct: purchased CarnaBio
T2 sequence (Q9H4B4 whole entry): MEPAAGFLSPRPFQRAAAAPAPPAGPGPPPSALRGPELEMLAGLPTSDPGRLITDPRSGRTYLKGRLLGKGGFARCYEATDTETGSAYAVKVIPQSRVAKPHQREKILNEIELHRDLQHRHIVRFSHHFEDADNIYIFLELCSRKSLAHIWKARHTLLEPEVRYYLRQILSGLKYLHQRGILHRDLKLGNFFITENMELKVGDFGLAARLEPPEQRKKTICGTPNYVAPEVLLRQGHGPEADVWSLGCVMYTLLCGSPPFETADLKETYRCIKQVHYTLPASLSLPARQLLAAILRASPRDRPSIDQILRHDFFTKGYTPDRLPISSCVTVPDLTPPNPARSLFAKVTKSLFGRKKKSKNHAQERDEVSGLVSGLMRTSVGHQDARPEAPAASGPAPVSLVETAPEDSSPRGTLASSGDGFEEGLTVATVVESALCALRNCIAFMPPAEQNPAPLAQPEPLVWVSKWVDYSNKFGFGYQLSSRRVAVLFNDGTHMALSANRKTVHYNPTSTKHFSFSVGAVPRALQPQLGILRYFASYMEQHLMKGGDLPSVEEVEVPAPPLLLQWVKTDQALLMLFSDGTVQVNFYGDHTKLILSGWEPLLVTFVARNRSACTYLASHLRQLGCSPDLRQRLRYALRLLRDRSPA

[1] = PLK TR-FRET peptide assay, GST-PLK3

Sequence of GST-PLK1 (P53350 whole entry): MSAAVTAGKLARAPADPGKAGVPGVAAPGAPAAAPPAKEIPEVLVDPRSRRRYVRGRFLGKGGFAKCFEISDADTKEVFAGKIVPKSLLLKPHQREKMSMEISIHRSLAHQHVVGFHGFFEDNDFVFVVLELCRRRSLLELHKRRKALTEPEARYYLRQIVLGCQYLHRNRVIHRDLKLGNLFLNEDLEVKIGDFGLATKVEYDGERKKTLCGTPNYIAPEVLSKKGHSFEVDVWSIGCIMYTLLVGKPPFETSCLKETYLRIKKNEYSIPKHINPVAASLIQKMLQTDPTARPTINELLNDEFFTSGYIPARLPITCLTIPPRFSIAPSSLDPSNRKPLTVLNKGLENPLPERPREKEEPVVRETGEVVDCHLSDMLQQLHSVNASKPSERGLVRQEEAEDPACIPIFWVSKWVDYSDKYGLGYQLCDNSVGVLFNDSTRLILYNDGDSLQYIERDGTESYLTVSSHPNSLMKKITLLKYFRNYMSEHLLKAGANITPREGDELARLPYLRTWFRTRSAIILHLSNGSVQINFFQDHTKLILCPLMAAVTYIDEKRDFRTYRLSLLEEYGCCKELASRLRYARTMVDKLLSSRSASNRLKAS

SMILES | IC50 (GST-PLK1) | IC50 (GST-PLK2) | IC50 (GST-PLK3; [1]) | PLK2 activity relative to the opposite enantiomer / other isomer (GST-PLK2; comparison of resolved enantiomers, used to assign absolute configuration) | IC50 (GST-PLK3)
CCC12COCCN1c1nc(-n3ccnc3-c3ccccc3)ncc1N(C)C2=O (racemic) [Example 317, 6a-ethyl-5-methyl-2-(2-phenyl-1H-imidazol-1-yl)-6a,7,9,10-tetrahydro-[1,4]oxazino[3,4-h]pteridin-6(5H)-one] | 10 to 50 µM | < 1 µM | 1 to 10 µM |  | 
CCC12CN(C)CCN1c1nc(-n3ccnc3-c3ccccc3)ncc1N(C)C2=O (racemic) [Example 371, 6a-ethyl-5,8-dimethyl-2-(2-phenyl-1H-imidazol-1-yl)-7,8,9,10-tetrahydro-5H-pyrazino[2,1-h]pteridin-6(6aH)-one] | > 50 µM | < 1 µM | > 50 µM |  | 
CCC12COCCN1c1nc(-c3cn[nH]c3-c3ccc(F)cc3F)ncc1N(C)C2=O (racemic) [Example 405, 2-(5-(2,4-difluorophenyl)-1H-pyrazol-4-yl)-6a-ethyl-5-methyl-6a,7,9,10-tetrahydro-[1,4]oxazino[3,4-h]pteridin-6(5H)-one] | 10 to 50 µM | < 1 µM | 1 to 10 µM |  | 
CC[C@@H]1C(=O)N(C)c2cnc(-n3ccnc3)nc2N1C1CCOC1 (single isomer, unassigned) [Example 299] | 1 to 10 µM | < 1 µM | 10 to 50 µM |  | 
CC[C@@H]1C(=O)N(C)c2cnc(-n3ccnc3)nc2N1C1CCCC1 [Example 3, (R)-8-cyclopentyl-7-ethyl-2-(1H-imidazol-1-yl)-5-methyl-7,8-dihydropteridin-6(5H)-one] | < 1 µM | < 1 µM | 10 to 50 µM |  | 
CC[C@@H]1C(=O)N(C)c2cnc(-c3ccn(C)c(=O)c3)nc2N1C1CCCC1 [Example 19, (R)-8-cyclopentyl-7-ethyl-5-methyl-2-(1-methyl-2-oxo-1,2-dihydropyridin-4-yl)-7,8-dihydropteridin-6(5H)-one] | < 1 µM | < 1 µM | 10 to 50 µM |  | 
CC[C@@H]1C(=O)N(C)c2cnc(-n3cc(C(=O)NC)cn3)nc2N1C1CCCC1 [Example 40, (R)-1-(8-cyclopentyl-7-ethyl-5-methyl-6-oxo-5,6,7,8-tetrahydropteridin-2-yl)-N-methyl-1H-pyrazole-4-carboxamide] | < 1 µM |  | 10 to 50 µM |  | 
CC[C@@H]1C(=O)N(C)c2cnc(-n3ccnc3-c3ccccc3)nc2N1C1CCOC1 (stereo partly drawn) [Example 182] |  |  | < 1 µM |  | 
CC[C@@H]1C(=O)N(C)c2cnc(-n3ccnc3-c3ccccc3)nc2N1CCC(F)(F)F [Example 190] |  |  | 1 to 10 µM |  | 
CC[C@@H]1C(=O)N(C)c2cnc(-n3ccnc3-c3ccc(F)cc3)nc2N1CCC(F)(F)F [Example 233] |  |  | 10 to 50 µM |  | 
CC[C@@H]1C(=O)N(C)c2cnc(-n3ccnc3-c3ccc(F)cc3)nc2N1C1CCC(F)(F)C1 (stereo partly drawn) [Example 242] |  |  | 1 to 10 µM |  | 
CC[C@@H]1C(=O)N(C)c2cnc(N3CCN=C3c3ccccc3)nc2N1C(C)C [Example 246, (R)-7-ethyl-8-isopropyl-5-methyl-2-(2-phenyl-4,5-dihydro-1H-imidazol-1-yl)-7,8-dihydropteridin-6(5H)-one] |  |  |  |  | 1 to 10 µM
CN1C(=O)C(CC(F)(F)F)N(CCC(F)(F)F)c2nc(-n3ccnc3-c3ccc(F)cc3)ncc21 (stereo not drawn) [Example 255] |  |  | 10 to 50 µM |  | 
CCC1C(=O)N(C)c2cnc(-n3ccnc3-c3ccc(F)cc3)nc2N1c1ccc(F)cc1 (stereo not drawn) [Example 324] |  |  | 1 to 10 µM |  | 
CC[C@@H]1C(=O)N(C)c2cnc(-c3cn[nH]c3-c3nccs3)nc2N1C1CCOCC1 [Example 349] |  |  | < 1 µM |  | 

The next lines start with results.

IC50 (GST-PLK1) | IC50 (GST-PLK2) | IC50 (GST-PLK3; [1]) | PLK2 activity relative to the opposite enantiomer / other isomer (GST-PLK2; comparison of resolved enantiomers, used to assign absolute configuration) | SMILES | IC50 (GST-PLK3)
> 50 µM | < 1 µM | 1 to 10 µM |  | CC[C@@]12COCCN1c1nc(-n3ccnc3-c3ccccc3)ncc1N(C)C2=O (single isomer, unassigned) [Example 314] | 
> 50 µM | 10 to 50 µM | > 50 µM |  | CC[C@]12COCCN1c1nc(-n3ccnc3-c3ccccc3)ncc1N(C)C2=O (single isomer, unassigned) [Example 315] | 
< 1 µM | < 1 µM | 10 to 50 µM |  | CC[C@@H]1C(=O)N(C)c2cnc(-c3ccncc3)nc2N1C1CCCC1 [Example 5, (R)-8-cyclopentyl-7-ethyl-5-methyl-2-(pyridin-4-yl)-7,8-dihydropteridin-6(5H)-one] | 
< 1 µM | < 1 µM |  |  | CC[C@@H]1C(=O)N(C)c2cnc(-c3cn[nH]c3)nc2N1C1CCCC1 [Example 7, (R)-8-cyclopentyl-7-ethyl-5-methyl-2-(1H-pyrazol-4-yl)-7,8-dihydropteridin-6(5H)-one] | 
1 to 10 µM | 1 to 10 µM |  |  | CC[C@@H]1C(=O)N(C)c2cnc(-c3cc[n+]([O-])cc3)nc2N1C1CCCC1 [Example 13, (R)-4-(8-cyclopentyl-7-ethyl-5-methyl-6-oxo-5,6,7,8-tetrahydropteridin-2-yl)pyridine 1-oxide] | 
< 1 µM | < 1 µM |  |  | CC[C@@H]1C(=O)N(C)c2cnc(-c3ccnc(O)c3)nc2N1C1CCCC1 [Example 14, (R)-8-cyclopentyl-7-ethyl-2-(2-hydroxypyridin-4-yl)-5-methyl-7,8-dihydropteridin-6(5H)-one] | 
< 1 µM | 1 to 10 µM | 10 to 50 µM |  | CCOC(=O)c1cnn(-c2ncc3c(n2)N(C2CCCC2)[C@H](CC)C(=O)N3C)c1 [Example 18, (R)-ethyl 1-(8-cyclopentyl-7-ethyl-5-methyl-6-oxo-5,6,7,8-tetrahydropteridin-2-yl)-1H-pyrazole-4-carboxylate] | 
1 to 10 µM | < 1 µM | > 50 µM |  | CC[C@@H]1C(=O)N(C)c2cnc(-n3ccnc3)nc2N1C(C)C [Example 22, (R)-7-ethyl-2-(1H-imidazol-1-yl)-8-isopropyl-5-methyl-7,8-dihydropteridin-6(5H)-one] | 
1 to 10 µM | < 1 µM | 10 to 50 µM |  | CC[C@@H]1C(=O)N(C)c2cnc(-n3cnc(CC#N)c3)nc2N1C1CCCC1 [Example 35, (R)-2-(1-(8-cyclopentyl-7-ethyl-5-methyl-6-oxo-5,6,7,8-tetrahydropteridin-2-yl)-1H-imidazol-4-yl)acetonitrile] | 
< 1 µM | < 1 µM | < 1 µM |  | CC[C@@H]1C(=O)N(C)c2cnc(-n3cnc(C(=O)O)c3)nc2N1C1CCCC1 [Example 37, (R)-1-(8-cyclopentyl-7-ethyl-5-methyl-6-oxo-5,6,7,8-tetrahydropteridin-2-yl)-1H-imidazole-4-carboxylic acid] | 
 |  | 1 to 10 µM |  | CC[C@@H]1C(=O)N(C)c2cnc(-n3ccnc3-c3ccccc3)nc2N1C1CCOC1 (stereo partly drawn) [Example 203] | 
 |  | 10 to 50 µM |  | CC[C@@H]1C(=O)N(C)c2cnc(-n3ccnc3-c3ccc(F)cc3)nc2N1C1CC(F)(F)C1 [Example 247] | 
 | < 1 µM |  |  | CC[C@@]12CCCN1c1nc(-n3ccnc3-c3cccc(Br)c3)ncc1N(C)C2=O [Example 252] | 
 |  | > 50 µM |  | CC[C@@H]1C(=O)N(C)c2cnc(-n3ccc4ccccc43)nc2N1C1CCCC1 [Example 385] | 
 |  |  | more active compound | CC[C@@]12COCCN1c1nc(-n3ccnc3-c3ccccc3)ncc1NC2=O [Example 418, (S)-6a-ethyl-2-(2-phenyl-1H-imidazol-1-yl)-6a,7,9,10-tetrahydro-[1,4]oxazino[3,4-h]pteridin-6(5H)-one] | 
